In patent US9023862B2, “Medicament for the treatment of endometriosis” (Ferring International Center S.A., priority 2007, dated 2015):

Legend:
[1] = system: endometriotic lesions; test: Nude mouse endometriosis model: active lesions, histology (OM, TEM) and morphometry; format: in vivo, mice; conditions: for percentage of active lesions: two weeks, control 89.6±5.7%, p=0.0169, mean ± SEM
Protocol: An experimental animal endometriosis model was developed in nude mice by inserting human endometrium fragments. Female mice (Hsd: Athimic Nude-nu, Harlan Ibérica S. L, Barcelona, Spain) were individually housed in autoclaved cages and bedding, in laminar flow filtered hoods. The animal room was maintained at 26 C with a 12-h light, 12-h dark cycle, and mice were fed ad libitum with autoclaved laboratory rodent chow and acidified water. All handling was performed in laminar flow filtered hoods. A mixture of ketamine/medetomidine (75 μg/g ketamine and 1 μg/g medetomidine) (Ketolar®, Parke-Davis, España; Domtor®, Pfizer, Spain) i.p injected, was used to anesthetize mice before invasive procedures and atipamezole (Antisedan®, SmithKline Beecham, Spain) 1 μg/g i.p injected, to reverse the anesthesia effects, was used after invasive procedures, using sterile instruments.
At the age of 5 weeks, sterile 60-d release capsules containing 18 mg 17β-estradiol (Innovative Research of America, Sarasota, Fla.) were placed sc in the neck of each animal. According to the manufacturer's information, capsules provide continuous release of hormone at serum concentrations of 150-250 pmol/liter, in the range of physiological levels in mice during the estrous cycle. This stable physiological level of estrogen promotes the growth of transplanted human endometrium and avoids intermouse differences related to various stages of the estrous cycle.
Four days after insertion of the estrogen pellet, an entrance was made to the peritoneal cavity in the midline in the lower abdomen to insert fresh human endometrium from ovum pick-up donors. These fragments were stuck by glue (Vetabond®, 3M Animal Care products, USA) to the peritoneum. This protocol allowed to mimic the pathologic situation of retrograde menstruation that occur in women with endometriosis.
(§1) Morphometric study was performed to measure the implants area and cellular density. Immunocytochemistry with Ki-67 (monoclonal IgG1 DAKO Corp., Denmark) antibody was performed in order to evaluate the proliferative activity of the implants. The histopathological and subcellular ultrastructural changes were detected using an optical microscope (OM), transmission electronic microscope (TEM) and histochemical staining. Optical microscopy (OM), transmission electron microscopy (TEM) and morphometry were performed to ascertain the presence of endometrial glands and stroma and study subcellular ultrastructural changes, area of the implants and cellular density.

[2] = system: blood vessels in endometriotic lesions; test: Immunofluorescence (vWF/α-SMA) of new and mature blood vessels in the implants; format: in vivo, mice; conditions: low and high dose groups vs control
Protocol: The anti-angiogenic effects of the dopamine agonists were assessed by immunofluorescence, the antibodies used in confocal microscopy raised against Von Willebrand factor (vWF monoclonal IgG1, DAKO Corp., Denmark) present in endothelial cells and vascular smooth muscle cells (monoclonal IgG2 α-SMA-FITC conjugated de Sigma, St Louis, USA). Blood vessel which are not of new formation, are rounded by a smooth muscle layer which confers maturity to them. Identification of endothelial cells was made employing vWF, whereas mature vessels were identified by α-SMA positive staining. Thus, vWF+/αSMA− blood vessels were considered new or immature, while vWF+/αSMA+ vessels were classified as old or mature blood vessels.
The angiogenic status of the lesions was initially analyzed using immunofluorescence employing antibodies to identify new (vWF+/αSMA−) and old vessels (vWF+/αSMA+) and confocal microscopy (Leica Confocal Software). Immunofluorescence employing antibodies raised against the Von Willebrand factor (vWF) present in endothelial cells and vascular smooth muscle cells (α-SMA) can be used to test the antiangiogenic action Cb2. Blood vessel which are not of new formation, are rounded by a smooth muscle layer which confers maturity to them. Identification of endothelial cells was made employing vWF, whereas mature vessels were identified by α-SMA positive staining. […]

[3] = system: endometriotic lesions; test: Ki-67 immunocytochemistry, proliferative activity of the implants; format: in vivo, mice; conditions: both low and high dose groups vs control; P<0.001
Protocol: as §1
An immunocyto chemistry study using the Ki-67 antibody (i.e. analysing the degree of cellular proliferation employing antibodies against Ki-67) was used to evaluate the proliferative activity of the implants using methods known in the art.

[4] = system: VEGF; test: TaqMan Real-time PCR gene expression in implants: VEGF; format: in vivo, mice; conditions: for VEGF relative expression: vehicle 1.2 ± 0.3, Mean ± SD
Source text: (§2) TaqMan Real-time PCR and 2^−ΔΔCt methods were used to analyze the gene expression profiles of three different markers that promote angiogenesis (VEGF, VEGFR-2, Notch-4); Angiopoietin-1 (Ang-1), an antiangiogenesis marker which promotes the enlargement of existing vessels and resistance to leakage; and Wnt-1.
(§3) TaqMan Real-time PCR and 2^−ΔΔCt methods were used to analyze the gene expression profiles of three different markers that promote angiogenesis (VEGF, VEGFR-2, Notch-4); Angiopoietin-1 (Ang-1), an antiangiogenesis marker which promotes the enlargement of existing vessels and resistance to leakage; and Wnt-1. The housekeeping 18S rRNA was used to normalize the target gene Ct values. The Ct value in each group was expressed relative to the control group Ct values (calibrator), to calculate the relative expression by the 2^−ΔΔCt method. cDNA obtained from sarcoma 180 tumor cells (S-180) and human umbilical vein endothelial cells (HUVEC) was used as negative and positive control, respectively, for the VEGF and VEGFR-2 gene expression. Spleen was used as positive control for Ang-1 and Wnt-1, and lung was employed as a Notch-4 positive control.

[5] = system: VEGFR-2 (KDR); test: TaqMan Real-time PCR gene expression in implants: VEGFR-2 (KDR); format: in vivo, mice; conditions: for VEGFR-2 (KDR) relative expression: vehicle 1.0 ± 0.1, Mean ± SD
Source text: as §2, §3

[6] = system: Notch-4; test: TaqMan Real-time PCR gene expression in implants: Notch-4; format: in vivo, mice; conditions: for Notch-4 relative expression: vehicle 1.0 ± 0.1, Mean ± SD
Source text: as §2, §3

[7] = system: Ang-1; test: TaqMan Real-time PCR gene expression in implants: Ang-1; format: in vivo, mice; conditions: for Ang-1 relative expression: vehicle 1.1 ± 0.2, Mean ± SD
Source text: as §2, §3

[8] = system: Wnt-1; test: TaqMan Real-time PCR gene expression in implants: Wnt-1; format: in vivo, mice; conditions: for Wnt-1 relative expression: vehicle 1.0 ± 0.1, Mean ± SD
Source text: as §2, §3

[9] = mouse, in vivo
Source text: (§4) Three weeks after implantation the animals were split into three groups. […] Two weeks after treatment the animals were sacrificed and the endometriotic lesions sampled and analysed as set out below.

[10] = Toxicity in the nude mouse endometriosis study; conditions: 0.05 and 0.1 mg/kg/day oral, two weeks
Source text: as §4

[11] = low and high dose groups, p <0.05

C=CCN1C[C@H](C(=O)N(CCCN(C)C)C(=O)NCC)C[C@@H]2c3cccc4[nH]cc(c34)C[C@H]21 [cabergoline]
ratio glands/stroma (morphometry) ([1]; both low (0.05 mg/kg/day) and high (0.1 mg/kg/day) doses vs controls, p<0.05): more stroma and less glands than the controls | cellular density (morphometry) ([1]; control, low and high dose groups): no statistical difference among groups | histology of treated lesions (OM and TEM) ([1]; high and low dose): a lax stroma, with lost cellularity and organization | percentage of active lesions ([1]; high dose 0.1 mg/kg/day oral): 60.4±8.4% | percentage of active lesions ([1]; low dose 0.05 mg/kg/day oral): 58.6±9.7% | new blood vessel formation (angiogenesis) [2]: significantly reduced new blood vessel formation | proliferation (Proliferation Index, Ki-67 positive cells) [3]: decrease in proliferation | VEGF relative expression ([4]; HIGH DOSE (0.1 mg/kg/day)): 0.4 ± 0.1 | VEGF relative expression ([4]; LOW DOSE (0.05 mg/kg/day)): 0.5 ± 0.2 | VEGF expression in endometrial implants ([4]; increasing doses (control, 0.05, 0.1 mg/kg/day), FIG. 6a): trend towards decreased VEGF expression | Expression of VEGF in treated groups vs vehicle [4, 11]: Downregulated | VEGFR-2 (KDR) relative expression ([5]; HIGH DOSE (0.1 mg/kg/day)): 0.3 ± 0.1 | VEGFR-2 (KDR) relative expression ([5]; LOW DOSE (0.05 mg/kg/day)): 0.4 ± 0.1 | Expression of VEGFR-2 (KDR) in treated groups vs vehicle [5, 11]: Downregulated | Notch-4 relative expression ([6]; HIGH DOSE (0.1 mg/kg/day)): 0.4 ± 0.1 | Notch-4 relative expression ([6]; LOW DOSE (0.05 mg/kg/day)): 0.5 ± 0.1 | Expression of Notch-4 in treated groups vs vehicle [6, 11]: Downregulated | Ang-1 relative expression ([7]; HIGH DOSE (0.1 mg/kg/day)): 3.7 ± 0.6 | Ang-1 relative expression ([7]; LOW DOSE (0.05 mg/kg/day)): 3.2 ± 0.6 | Expression of Ang-1 in treated groups vs vehicle [7, 11]: Upregulated | Wnt-1 relative expression ([8]; HIGH DOSE (0.1 mg/kg/day)): 3.3 ± 0.6 | Wnt-1 relative expression ([8]; LOW DOSE (0.05 mg/kg/day)): 3.4 ± 0.2 | Expression of Wnt-1 in treated groups vs vehicle ([8]; low and high dose groups, p =0.07): Upregulated | body weight of the mice in the different treatment groups [9]: not significantly different | mortality following administration [10]: No mice in the study died
